The record followed here is patent EP4692321A1, “CELL STRUCTURE PRODUCTION METHOD” (Toppan Holdings Inc., priority 2023, dated 2024).

Data set [1] has as its system vascularized liver model. Put plainly: Cell viability by ATP assay (CellTiter-Glo 3D) after monocrotaline (Test Example 5). It is filed as cell-based, human. As to conditions: vascularized liver model compared to other models, 0 to 600 µM added on Day 7, 7 further days. Here is the method: (§1) Except for using a 24-transwell as the culture vessel, culturing a cell mixture of 1.95 × 10^4 human hepatocytes (PXB Cells (registered trademark); manufactured by PhoenixBio Co., Ltd.) and 3.0 × 10^3 immortalized sinusoidal endothelial cells (SEC; manufactured by Sciencell, Product No. 5000) using the HCM medium including 50 ng/mL VEGF-A and 50 ng/mL VEGF-C as vascular development factors and 1 v/v% vascular maintenance factor cocktail,culturing a cell mixture of human hepatocytes (PXB Cells (registered trademark); manufactured by PhoenixBio Co., Ltd.), 7.5 × 10^3 immortalized sinusoidal endothelial cells (SEC, manufactured by Sciencell, Product No. "5000"), and 3.0 × 10^3 hepatic stellate cells (LX2; manufactured by Sigma-Aldrich) using the HCM medium including 1 v/v% vascular maintenance factor cocktail, orculturing a cell mixture of 2.1 × 10^3 immortalized sinusoidal endothelial cells (SEC; manufactured by Sciencell, Product No. "5000") and 9.0 × 10^3 hepatic stellate cells (LX2; manufactured by Sigma-Aldrich) using the HCM medium including 1 v/v% vascular maintenance factor cocktail, cell mixtures were cultured and cell structures were obtained in the same manner as in Test Example 4. […]
In addition, the cell viability of the similarly produced cell structure was also quantified by an ATP assay. […]

The test system of data set [2] is vascularized liver model. Description: Vascular toxicity: CD31 immunostaining and blood vessel length after monocrotaline (Test Example 5). As to conditions: vascularized liver model compared to other models; 0 to 600 µM added on Day 7, 7 further days; relative to no monocrotaline = 100%. It is filed as cell-based, human. Here is the method:
as §1
In addition, vascular structures were extracted from the microscopic images shown in FIGS. 8 and 9, and the blood vessel lengths of the cell structures were measured. […]

Take `C[C@H]1C(=O)O[C@@H]2CCN3CC=C(COC(=O)[C@](C)(O)[C@]1(C)O)[C@H]23` [monocrotaline]: the cell viability result in the data set on vascularized liver model [1] is listed as “concentration-dependent decrease in cell viability”. Also, the blood vessel length result with vascularized liver model [2] was “notably shorter blood vessel length”.
